Assay [1] addresses T1, ATP-dependent RNA helicase DHX30 (Homo sapiens, UniProt Q7L2E3).
T1 sequence (Q7L2E3 whole entry): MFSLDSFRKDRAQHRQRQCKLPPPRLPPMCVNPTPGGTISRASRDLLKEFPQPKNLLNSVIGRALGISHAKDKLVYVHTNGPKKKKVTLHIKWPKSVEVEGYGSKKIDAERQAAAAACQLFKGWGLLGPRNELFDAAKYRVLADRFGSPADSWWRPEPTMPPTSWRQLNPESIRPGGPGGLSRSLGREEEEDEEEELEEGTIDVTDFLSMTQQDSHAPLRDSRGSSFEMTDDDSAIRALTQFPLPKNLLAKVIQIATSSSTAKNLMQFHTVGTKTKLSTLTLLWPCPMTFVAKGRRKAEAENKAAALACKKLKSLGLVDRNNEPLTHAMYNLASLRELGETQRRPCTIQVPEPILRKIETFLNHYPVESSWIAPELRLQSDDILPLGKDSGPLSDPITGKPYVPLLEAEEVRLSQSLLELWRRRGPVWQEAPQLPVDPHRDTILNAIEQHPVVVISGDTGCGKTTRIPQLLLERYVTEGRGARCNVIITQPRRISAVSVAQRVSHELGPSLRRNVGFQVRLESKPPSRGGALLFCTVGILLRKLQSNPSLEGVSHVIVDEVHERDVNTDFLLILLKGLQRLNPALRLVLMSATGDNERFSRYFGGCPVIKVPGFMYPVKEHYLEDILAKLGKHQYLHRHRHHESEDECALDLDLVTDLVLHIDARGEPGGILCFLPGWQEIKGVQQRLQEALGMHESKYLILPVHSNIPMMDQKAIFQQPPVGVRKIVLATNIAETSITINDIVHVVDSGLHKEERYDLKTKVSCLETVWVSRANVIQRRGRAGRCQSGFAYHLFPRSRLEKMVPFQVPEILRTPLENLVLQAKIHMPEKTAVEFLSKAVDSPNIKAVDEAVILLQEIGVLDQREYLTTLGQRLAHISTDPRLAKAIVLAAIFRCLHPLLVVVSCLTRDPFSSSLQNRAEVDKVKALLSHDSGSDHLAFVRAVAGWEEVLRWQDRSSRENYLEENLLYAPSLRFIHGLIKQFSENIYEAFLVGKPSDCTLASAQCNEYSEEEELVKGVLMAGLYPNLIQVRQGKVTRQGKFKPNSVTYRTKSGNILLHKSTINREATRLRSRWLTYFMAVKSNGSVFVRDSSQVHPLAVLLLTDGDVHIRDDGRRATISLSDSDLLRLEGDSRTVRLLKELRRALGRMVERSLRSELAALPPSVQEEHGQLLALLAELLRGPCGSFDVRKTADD

For assay [2], the target named is T2, Eukaryotic translation initiation factor 5B (Homo sapiens, UniProt O60841).
T2 sequence (O60841 whole entry): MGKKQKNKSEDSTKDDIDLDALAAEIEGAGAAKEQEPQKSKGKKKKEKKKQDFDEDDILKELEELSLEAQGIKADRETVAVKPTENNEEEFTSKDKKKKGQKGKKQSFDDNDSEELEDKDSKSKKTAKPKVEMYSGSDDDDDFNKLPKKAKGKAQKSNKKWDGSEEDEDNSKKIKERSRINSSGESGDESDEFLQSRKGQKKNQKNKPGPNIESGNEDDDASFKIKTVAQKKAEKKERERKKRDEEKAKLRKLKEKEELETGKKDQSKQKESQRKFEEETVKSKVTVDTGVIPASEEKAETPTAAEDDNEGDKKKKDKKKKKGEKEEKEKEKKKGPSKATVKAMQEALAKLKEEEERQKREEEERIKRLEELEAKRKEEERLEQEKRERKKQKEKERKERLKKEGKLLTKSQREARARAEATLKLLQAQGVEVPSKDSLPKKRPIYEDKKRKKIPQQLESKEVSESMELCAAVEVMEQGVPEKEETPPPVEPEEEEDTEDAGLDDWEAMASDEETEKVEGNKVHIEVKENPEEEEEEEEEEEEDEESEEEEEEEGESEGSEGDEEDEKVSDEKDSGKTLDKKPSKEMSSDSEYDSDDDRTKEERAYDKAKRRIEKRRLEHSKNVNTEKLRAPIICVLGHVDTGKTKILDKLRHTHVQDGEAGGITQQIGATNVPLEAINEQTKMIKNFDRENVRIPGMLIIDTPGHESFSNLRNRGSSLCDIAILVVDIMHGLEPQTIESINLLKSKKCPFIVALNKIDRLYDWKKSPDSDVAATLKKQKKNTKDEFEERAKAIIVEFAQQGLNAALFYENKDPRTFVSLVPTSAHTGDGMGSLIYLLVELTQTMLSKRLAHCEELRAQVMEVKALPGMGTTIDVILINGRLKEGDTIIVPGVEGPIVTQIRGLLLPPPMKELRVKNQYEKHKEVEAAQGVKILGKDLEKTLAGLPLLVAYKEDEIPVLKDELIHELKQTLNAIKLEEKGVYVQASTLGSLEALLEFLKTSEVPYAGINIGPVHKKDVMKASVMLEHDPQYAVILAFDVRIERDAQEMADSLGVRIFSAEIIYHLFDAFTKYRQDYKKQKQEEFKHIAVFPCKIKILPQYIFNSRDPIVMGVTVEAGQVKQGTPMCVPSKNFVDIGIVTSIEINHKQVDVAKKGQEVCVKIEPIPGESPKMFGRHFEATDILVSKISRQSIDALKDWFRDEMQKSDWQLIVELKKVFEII

For assay [3], the target named is G protein-coupled receptor kinase 6 (Homo sapiens, UniProt P43250).
Chain of G protein-coupled receptor kinase 6 (P43250 whole entry): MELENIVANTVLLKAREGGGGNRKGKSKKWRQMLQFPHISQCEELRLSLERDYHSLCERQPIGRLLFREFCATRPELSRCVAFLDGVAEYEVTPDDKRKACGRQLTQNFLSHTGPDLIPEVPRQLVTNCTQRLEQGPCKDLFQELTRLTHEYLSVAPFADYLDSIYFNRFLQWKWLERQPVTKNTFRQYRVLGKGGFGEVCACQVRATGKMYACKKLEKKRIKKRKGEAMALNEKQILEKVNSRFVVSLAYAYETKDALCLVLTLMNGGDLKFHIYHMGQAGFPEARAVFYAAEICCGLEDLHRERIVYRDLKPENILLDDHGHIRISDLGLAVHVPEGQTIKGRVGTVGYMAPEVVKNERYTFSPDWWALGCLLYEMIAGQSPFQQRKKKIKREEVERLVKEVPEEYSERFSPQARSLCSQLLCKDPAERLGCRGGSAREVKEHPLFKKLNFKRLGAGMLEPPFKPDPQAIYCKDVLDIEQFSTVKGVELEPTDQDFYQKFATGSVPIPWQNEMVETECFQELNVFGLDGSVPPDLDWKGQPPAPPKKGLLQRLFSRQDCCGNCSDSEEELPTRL
Assay [4] deals with Focal adhesion kinase 1 (Homo sapiens, UniProt Q05397).
Chain of Focal adhesion kinase 1 (Q05397 whole entry): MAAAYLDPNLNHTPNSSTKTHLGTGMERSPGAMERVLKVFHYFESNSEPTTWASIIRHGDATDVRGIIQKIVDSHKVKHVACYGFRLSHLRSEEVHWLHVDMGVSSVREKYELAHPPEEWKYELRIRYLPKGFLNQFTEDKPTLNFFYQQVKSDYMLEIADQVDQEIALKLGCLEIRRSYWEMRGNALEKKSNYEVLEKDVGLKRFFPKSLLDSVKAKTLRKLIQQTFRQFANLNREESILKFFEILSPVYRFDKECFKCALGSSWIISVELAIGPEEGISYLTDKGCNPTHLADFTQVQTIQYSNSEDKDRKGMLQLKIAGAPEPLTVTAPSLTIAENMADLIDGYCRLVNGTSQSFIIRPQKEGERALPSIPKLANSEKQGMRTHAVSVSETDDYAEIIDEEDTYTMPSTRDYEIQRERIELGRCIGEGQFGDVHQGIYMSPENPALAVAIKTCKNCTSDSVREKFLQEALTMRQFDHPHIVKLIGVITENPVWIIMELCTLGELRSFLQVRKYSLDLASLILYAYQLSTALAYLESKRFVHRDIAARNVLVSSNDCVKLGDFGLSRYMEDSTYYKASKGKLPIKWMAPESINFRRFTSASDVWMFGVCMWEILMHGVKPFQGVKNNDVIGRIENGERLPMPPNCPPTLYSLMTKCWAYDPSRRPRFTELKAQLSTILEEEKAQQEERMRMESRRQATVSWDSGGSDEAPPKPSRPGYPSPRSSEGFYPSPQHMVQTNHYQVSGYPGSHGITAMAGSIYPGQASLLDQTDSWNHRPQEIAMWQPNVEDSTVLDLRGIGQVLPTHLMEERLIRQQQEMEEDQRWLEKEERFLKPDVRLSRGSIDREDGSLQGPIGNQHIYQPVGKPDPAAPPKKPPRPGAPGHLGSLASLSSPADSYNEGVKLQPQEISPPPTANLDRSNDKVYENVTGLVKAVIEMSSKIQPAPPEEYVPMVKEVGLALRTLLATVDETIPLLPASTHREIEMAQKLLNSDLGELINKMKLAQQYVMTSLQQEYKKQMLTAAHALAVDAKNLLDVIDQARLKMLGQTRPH

Calls of active or inactive are those of the source.
Note: in the data inactive means no Kd found up to 30 µM.

In general, Kd refers to the equilibrium constant for the complex coming apart. Regarding `Cc1cc(Nc2nc(N[C@@H](C)c3ncc(F)cn3)ncc2Cl)n[nH]1` [AZD-1480], the Kd in assay [1] is > 30 µM (inactive); in assay [2], > 30 µM (inactive); in assay [3] it was > 30 µM (inactive); in assay [4] it was 0.191 µM (active).

In the case of `Cc1ccc(C(=O)Nc2ccc(Oc3cc4cnn(C)c4cc3-c3cn[nH]c3)c(F)c2)c(=O)n1-c1ccc(F)cc1` [MERESTINIB], the Kd in assay [1], in assay [2], in assay [3] and in assay [4] was > 30 µM (inactive) each time.

For `C#Cc1cccc(Nc2ncnc3cc4c(cc23)OCCOCCOCCO4)c1` [ICOTINIB], the Kd in assay [1], in assay [2], in assay [3] and in assay [4] was > 30 µM (inactive) each time.

On to `COc1cc(F)c(F)c(Nc2ccc(I)cc2F)c1NS(=O)(=O)C1(C[C@H](O)CO)CC1` [REFAMETINIB], for which the Kd in assay [1], in assay [2], in assay [3] and in assay [4] was > 30 µM (inactive) each time.

Take `FC(F)(F)c1ccc(CNc2ccc(Cc3c[nH]c4ncc(Cl)cc34)cn2)cn1` [PEXIDARTINIB]: the Kd in assay [1], in assay [3] and in assay [4] was > 30 µM (inactive) in each case.

Regarding `CNC(=O)c1cccc(-c2ccc3c(N4CCOC[C@@H]4C)nc(N4CCOC[C@@H]4C)nc3n2)c1` [VISTUSERTIB], the Kd in assay [2], in assay [3] and in assay [4] was > 30 µM (inactive) throughout.

For the compound `CC1(C)CNc2cc(NC(=O)c3cccnc3NCc3ccncc3)ccc21` [MOTESANIB], the Kd in assay [1], in assay [2] and in assay [3] was > 30 µM (inactive) throughout.

With `CC1(COc2ccc3c(c2)ncn3-c2ccc3cccc(N4CCC(N)CC4)c3n2)COC1` [CRENOLANIB], the Kd in assay [1], in assay [2], in assay [3] and in assay [4] was > 30 µM (inactive) throughout.

Regarding `O=S(=O)(c1cccc2cnccc12)N1CCCNCC1` [FASUDIL], the Kd in assay [1], in assay [2] and in assay [3] was > 30 µM (inactive) in each case.

Turning to `O=C(Nc1ccc(OC(F)(F)F)cc1)c1sccc1NCc1ccnc2ccccc12` [OSI-930], the Kd in assay [1], in assay [2], in assay [3] and in assay [4] was > 30 µM (inactive) throughout.

Take `COc1ccc(-c2ccc3ncc4c(c3c2)n(-c2ccc(N3CCNCC3)c(C(F)(F)F)c2)c(=O)n4C)cn1` [BGT-226 FREE BASE]: the Kd in assay [2], in assay [3] and in assay [4] was > 30 µM (inactive) in each case.

Turning to `CNC(=O)c1ccc(Nc2ncc(C(F)(F)F)c(NCc3nccnc3N(C)S(C)(=O)=O)n2)cc1` [DEFACTINIB], the Kd in assay [1] and in assay [3] was > 30 µM (inactive) each time.

For `Cc1cc(C(=O)Nc2cc(Oc3ccc4nc(NC(=O)C5CC5)cn4n3)ccc2C)n(C)n1` [TAK-593], the Kd in assay [1], in assay [3] and in assay [4] was > 30 µM (inactive) each time.

For `c1cc(OCCN2CCCCC2)cc(-c2n[nH]c3ccc(-c4nc[nH]n4)cc23)c1` [CC-401], the Kd in assay [1], in assay [3] and in assay [4] was > 30 µM (inactive) in each case.

Consider `Cn1c(=O)c(F)c(Nc2ccc(I)cc2F)c2c(=O)n(C[C@@H](O)CO)cnc21` [TAK-733], for which the Kd in assay [1], in assay [2], in assay [3] and in assay [4] was > 30 µM (inactive) each time.

Take `S=C(NCc1ccc2c(c1)OCO2)N1CCN(c2ncnc3c2oc2ccccc23)CC1` [AMUVATINIB]: the Kd in assay [1], in assay [2], in assay [3] and in assay [4] was > 30 µM (inactive) each time.

Consider `C=CC(=O)Nc1cc(Nc2nccc(-c3cn(C)c4ccccc34)n2)c(OC)cc1N(C)CCN(C)C` [OSIMERTINIB], for which the Kd in assay [1], in assay [2], in assay [3] and in assay [4] was > 30 µM (inactive) throughout.

For the compound `Cn1cc(-c2[nH]c3cc(NC(=O)[C@H](N)C4CCCCC4)cc4c3c2C=NNC4=O)cn1`, the Kd in assay [1], in assay [3] and in assay [4] was > 30 µM (inactive) in each case.

In the case of `C[C@@H]1COC(Nc2ccc3ncnc(Nc4ccc(OCc5nccs5)c(Cl)c4)c3c2)=N1` [VARLITINIB], the Kd in assay [1], in assay [3] and in assay [4] was > 30 µM (inactive) each time.

For `CCc1cc2c(cc1N1CCC(N3CCOCC3)CC1)C(C)(C)c1[nH]c3cc(C#N)ccc3c1C2=O` [ALECTINIB], the Kd in assay [1], in assay [2], in assay [3] and in assay [4] was > 30 µM (inactive) throughout.

For `CN1CCN(c2nc(C3=C(c4c[nH]c5ccccc45)C(=O)NC3=O)c3ccccc3n2)CC1` [SOTRASTAURIN], the Kd in assay [2], in assay [3] and in assay [4] was > 30 µM (inactive) throughout.

Take `COc1cccc2cc(-c3nc([C@H]4CC[C@H](C(=O)O)CC4)n4ncnc(N)c34)[nH]c12` [OSI-027]: the Kd in assay [1], in assay [2], in assay [3] and in assay [4] was > 30 µM (inactive) in each case.

Take `COc1cc2c(Oc3ccc4[nH]c(C)cc4c3F)ncnc2cc1OCCCN1CCCC1` [CEDIRANIB]: the Kd in assay [1], in assay [2] and in assay [3] was > 30 µM (inactive) each time.

As for `C[C@]1(O)C[C@@H](c2nc(-c3ccc4ccc(-c5ccccc5)nc4c3)c3c(N)nccn32)C1` [LINSITINIB], the Kd in assay [1], in assay [2] and in assay [3] was > 30 µM (inactive) each time.

On to `COc1ccc2c(OCc3nnc4ccc(-c5ccccc5)nn34)ccnc2c1` [AMG-208], for which the Kd in assay [2], in assay [3] and in assay [4] was > 30 µM (inactive) in each case.
